The record followed here is PMC3433420 (PLoS ONE, 2012).

Usually Kd stands for the constant that tells how readily two partners part at equilibrium. Read a high Kd as weaker binding.

Assay [1] deals with T1, PIK3R1-NC tandem SH2 domains (Homo sapiens, UniProt P27986).
T1 construct: the tandem protein was included in our analysis with all internal amino acids linking the domains; 6X His; thioredoxin; made in house; host or cells: E. coli BL21(DE3)pLysS
In words: FP saturation binding assay. To be noted: high-confidence ErbB interactions. Put shortly:
(§1)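 Rhodamine-labeled phosphopeptides (10 nM final) titrated with SH2 domain protein (0.002–10 µM, 12 points) in 20 mM HEPES, 100 mM KCl, 0.1% Tween-20, 5 mM DTT, pH 7.8; 20 min, room temperature, dark. FP read at 530/555 nm; KD fitted by nonlinear regression after thioredoxin background correction and outlier removal.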

The next assay deals with T2, VAV3 SH2 domain (Homo sapiens, UniProt Q9UKW4).
T2 construct: 6X His; thioredoxin; made in house; host or cells: BL21(DE3)pLysS E. coli
T2 sequence (Q9UKW4 672-766 limits assumed): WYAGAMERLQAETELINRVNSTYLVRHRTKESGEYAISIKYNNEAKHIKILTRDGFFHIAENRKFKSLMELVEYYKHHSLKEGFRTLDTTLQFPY
In words: FP saturation binding assay. Conditions: protein VAV3, high-confidence ErbB interactions, mean of replicate hits. Put shortly: as §1

Residues, ends and D or L forms follow the SMILES beside them.

T1 sequence (P27986 333-718 limits assumed): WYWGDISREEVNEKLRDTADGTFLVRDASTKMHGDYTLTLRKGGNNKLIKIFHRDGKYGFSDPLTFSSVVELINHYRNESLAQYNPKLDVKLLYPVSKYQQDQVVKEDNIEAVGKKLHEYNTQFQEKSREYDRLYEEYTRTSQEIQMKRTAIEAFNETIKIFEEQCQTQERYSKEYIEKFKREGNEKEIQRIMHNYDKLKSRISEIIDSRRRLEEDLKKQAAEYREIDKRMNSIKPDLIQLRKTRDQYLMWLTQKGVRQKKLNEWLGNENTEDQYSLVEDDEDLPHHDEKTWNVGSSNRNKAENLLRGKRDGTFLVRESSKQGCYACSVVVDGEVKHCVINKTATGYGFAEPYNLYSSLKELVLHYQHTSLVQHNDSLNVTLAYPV

In assay [1] (Protein PIK3R1-NC, FP saturation binding, mean over replicate hits), `CC(C)C[C@H](NC(=O)[C@H](Cc1ccc(OP(=O)(O)O)cc1)NC(=O)[C@H](CCC(=O)O)NC(=O)[C@H](CCC(=O)O)NC(=O)[C@H](C)NC(=O)[C@@H](N)CC(=O)O)C(=O)N[C@H](C(=O)N1CCC[C@H]1C(=O)N[C@@H](CCC(N)=O)C(=O)N[C@@H](CCC(N)=O)C(=O)NCC(=O)N[C@@H](Cc1ccccc1)C(=O)N[C@@H](CC(=O)O)C(=O)O)C(C)C` [ErbB2 1023 13-mer] (HELM PEPTIDE1{D.A.E.E.[O=C([C@H](Cc1ccc(OP(=O)(O)O)cc1)N[*:1])[*:2]].L.V.P.Q.Q.G.F.D}$$$$V2.0) showed a Kd of 7.14 µM.
At VAV3 SH2 domain, `CSCC[C@H](NC(=O)[C@H](CCC(=O)O)NC(=O)[C@H](CCC(=O)O)NC(=O)[C@H](Cc1ccc(OP(=O)(O)O)cc1)NC(=O)CNC(=O)[C@H](CCC(N)=O)NC(=O)[C@H](CCC(=O)O)NC(=O)[C@@H](N)CO)C(=O)N[C@@H](CCCNC(=N)N)C(=O)N[C@@H](C)C(=O)N[C@@H](Cc1ccccc1)C(=O)N[C@@H](CCC(N)=O)C(=O)N[C@@H](CC(=O)O)C(=O)O` [ErbB3 1289 13-mer] (HELM PEPTIDE1{S.E.Q.G.[O=C([C@H](Cc1ccc(OP(=O)(O)O)cc1)N[*:1])[*:2]].E.E.M.R.A.F.Q.D}$$$$V2.0) returned a Kd of 8.4 µM.
Regarding `CSCC[C@H](NC(=O)[C@H](Cc1ccc(OP(=O)(O)O)cc1)NC(=O)CNC(=O)[C@H](CCC(=O)O)NC(=O)[C@H](CCC(=O)O)NC(=O)[C@H](CC(=O)O)NC(=O)[C@H](CC(C)C)NC(=O)[C@H](CCC(=O)O)NC(=O)CNC(=O)[C@H](CCCNC(=N)N)NC(=O)[C@@H]1CCCN1)C(=O)N[C@H](C(=O)N1CCC[C@H]1C(=O)N[C@@H](CCSC)C(=O)N[C@@H](CCCNC(=N)N)C(=O)N[C@@H](CC(=O)O)C(=O)N[C@@H](CCCCN)C(=O)N[C@@H](CC(=O)O)C(=O)O)[C@@H](C)O` [ErbB4 1150 18-mer] (HELM PEPTIDE1{P.R.G.E.L.D.E.E.G.[O=C([C@H](Cc1ccc(OP(=O)(O)O)cc1)N[*:1])[*:2]].M.T.P.M.R.D.K.D}$$$$V2.0), the Kd in assay [1] (protein PIK3R1-NC, FP, mean of replicate hits) was 5.81 µM; on VAV3 SH2 domain it was 0.18 µM.
